According to the supplement of paper PMC10307832:

Assays:
Test in all cases: relative viability (nuclei count vs DMSO), 5 days (fraction); higher = more cells survive
CAP-232 + Linsitinib = compound: C[C@H]([C@@H](C(=O)N)NC(=O)[C@@H]1CSSC[C@@H](C(=O)N[C@H](C(=O)N[C@@H](C(=O)N[C@H](C(=O)N1)CCCCN)CC2=CNC3=CC=CC=C32)CC4=CC=C(C=C4)O)NC(=O)[C@@H](CC5=CC=CC=C5)N)O [CAP-232] + C[C@]1(O)C[C@@H](c2nc(-c3ccc4ccc(-c5ccccc5)nc4c3)c3c(N)nccn32)C1 [Linsitinib] (partner 1 µM)
Procedure, shortened: (§1)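 A single step with final 0.05% Triton X-100, 1% formaldehyde and 1 ug/ml Hoechst fixed the cells and stained nuclei 5 days after treatment. Lung cancer cell lines in 1536-well plates had been treated by pin tool the day after seeding with one drug alone or a fixed anchor-drug dose plus five library-drug doses (not always all listed) in √10 steps, and nuclei were counted on 4× images. Relative viability is the ratio of nuclei in treated wells to nuclei in vehicle wells, taken as the median of duplicate plates.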

CAP-232 + Dasatinib = compound: C[C@H]([C@@H](C(=O)N)NC(=O)[C@@H]1CSSC[C@@H](C(=O)N[C@H](C(=O)N[C@@H](C(=O)N[C@H](C(=O)N1)CCCCN)CC2=CNC3=CC=CC=C32)CC4=CC=C(C=C4)O)NC(=O)[C@@H](CC5=CC=CC=C5)N)O [CAP-232] + Cc1nc(Nc2ncc(C(=O)Nc3c(C)cccc3Cl)s2)cc(N2CCN(CCO)CC2)n1 [Dasatinib] (partner 0.075 µM)
Procedure, shortened: as §1

CAP-232 + Vorinostat = compound: C[C@H]([C@@H](C(=O)N)NC(=O)[C@@H]1CSSC[C@@H](C(=O)N[C@H](C(=O)N[C@@H](C(=O)N[C@H](C(=O)N1)CCCCN)CC2=CNC3=CC=CC=C32)CC4=CC=C(C=C4)O)NC(=O)[C@@H](CC5=CC=CC=C5)N)O [CAP-232] + O=C(CCCCCCC(=O)Nc1ccccc1)NO [Vorinostat] (partner 1 µM)
Procedure, shortened: as §1

CAP-232 + Olaparib = compound: C[C@H]([C@@H](C(=O)N)NC(=O)[C@@H]1CSSC[C@@H](C(=O)N[C@H](C(=O)N[C@@H](C(=O)N[C@H](C(=O)N1)CCCCN)CC2=CNC3=CC=CC=C32)CC4=CC=C(C=C4)O)NC(=O)[C@@H](CC5=CC=CC=C5)N)O [CAP-232] + O=C(c1cc(Cc2n[nH]c(=O)c3ccccc23)ccc1F)N1CCN(C(=O)C2CC2)CC1 [Olaparib] (partner 8 µM)
Procedure, shortened: as §1

CAP-232 + Tozasertib = compound: C[C@H]([C@@H](C(=O)N)NC(=O)[C@@H]1CSSC[C@@H](C(=O)N[C@H](C(=O)N[C@@H](C(=O)N[C@H](C(=O)N1)CCCCN)CC2=CNC3=CC=CC=C32)CC4=CC=C(C=C4)O)NC(=O)[C@@H](CC5=CC=CC=C5)N)O [CAP-232] + Cc1cc(Nc2cc(N3CCN(C)CC3)nc(Sc3ccc(NC(=O)C4CC4)cc3)n2)n[nH]1 [Tozasertib] (partner 0.1 µM)
Procedure, shortened: as §1

Cell Line | relative viability (CAP-232 + Linsitinib; first compound 0.4 µM) | relative viability (CAP-232 + Linsitinib; first compound 1.265 µM) | relative viability (CAP-232 + Linsitinib; first compound 4 µM) | relative viability (CAP-232 + Linsitinib; first compound 12.65 µM) | relative viability (CAP-232 + Dasatinib; first compound 0.4 µM) | relative viability (CAP-232 + Dasatinib; first compound 1.265 µM) | relative viability (CAP-232 + Dasatinib; first compound 4 µM) | relative viability (CAP-232 + Dasatinib; first compound 12.65 µM) | relative viability (CAP-232 + Vorinostat; first compound 0.4 µM) | relative viability (CAP-232 + Vorinostat; first compound 1.265 µM) | relative viability (CAP-232 + Vorinostat; first compound 4 µM) | relative viability (CAP-232 + Vorinostat; first compound 12.65 µM) | relative viability (CAP-232 + Olaparib; first compound 0.4 µM) | relative viability (CAP-232 + Olaparib; first compound 1.265 µM) | relative viability (CAP-232 + Olaparib; first compound 4 µM) | relative viability (CAP-232 + Olaparib; first compound 12.65 µM) | relative viability (CAP-232 + Tozasertib; first compound 0.4 µM) | relative viability (CAP-232 + Tozasertib; first compound 1.265 µM) | relative viability (CAP-232 + Tozasertib; first compound 4 µM) | relative viability (CAP-232 + Tozasertib; first compound 12.65 µM)
NCI-H838 | 1.09 | 1.01 | 1.08 | 0.595 | 0.364 | 0.249 | 0.403 | 0.25 | 0.727 | 0.756 | 0.754 | 0.736 | 0.883 | 0.808 | 0.836 | 0.705 | 0.274 | 0.273 | 0.286 | 0.231
NCI-H1355 | 0.776 | 0.901 | 1.02 | 0.754 | 0.847 | 0.736 | 0.618 | 0.5 | 0.612 | 0.624 | 0.74 | 0.611 | 0.737 | 0.747 | 0.769 | 0.703 | 0.638 | 0.586 | 0.557 | 0.655
NCI-H1395 | 1.3 | 0.986 | 1.03 | 0.831 | 0.413 | 0.445 | 0.426 | 0.388 | 1.11 |  | 0.79 | 0.573 | 0.436 |  | 0.462 | 0.264 | 0.677 | 0.793 | 0.765 | 0.79
NCI-H1437 | 1.04 | 1.03 | 1.17 | 0.664 | 0.547 | 0.343 | 0.358 | 0.416 | 0.921 | 0.877 | 0.86 | 0.828 | 0.64 | 0.629 | 0.665 | 0.607 | 0.412 | 0.403 | 0.461 | 0.466
NCI-H1651 | 1.02 | 0.937 | 1.01 | 0.655 | 0.357 | 0.395 | 0.465 | 0.33 | 0.632 | 0.55 | 0.577 | 0.551 | 0.196 | 0.184 | 0.2 | 0.214 | 0.665 | 0.681 | 0.732 | 0.625
NCI-H1666 | 0.721 |  | 0.85 | 0.619 | 0.904 | 0.757 | 0.893 | 0.678 | 1.09 | 1.06 | 1.19 | 0.856 | 0.819 | 0.75 | 0.816 | 0.664 | 0.631 | 0.574 | 0.673 | 0.345
NCI-H1734 | 0.848 | 0.917 | 0.951 | 0.766 | 0.45 | 0.459 | 0.461 | 0.446 | 0.878 | 0.755 | 0.803 | 0.708 | 0.596 | 0.609 | 0.605 | 0.512 | 0.248 | 0.272 | 0.266 | 0.197
NCI-H1755 | 1.07 | 0.975 | 1.08 | 0.941 | 0.358 | 0.461 | 0.48 | 0.372 | 0.698 | 0.635 | 0.755 | 0.73 | 0.911 | 0.881 | 0.935 | 0.824 | 0.581 | 0.498 | 0.58 | 0.498
NCI-H1793 | 1.09 | 1.06 | 0.652 | 0.801 | 0.382 | 0.365 | 0.393 | 0.367 | 0.947 | 0.703 | 0.728 | 0.653 | 0.921 | 0.922 | 1.04 | 0.877 | 0.375 | 0.355 | 0.486 | 0.356
NCI-H1915 | 1.08 | 1.1 | 1.08 | 0.986 | 0.326 | 0.31 | 0.303 | 0.287 | 0.697 | 0.511 | 0.516 | 0.506 | 0.243 | 0.248 | 0.249 | 0.267 | 0.593 | 0.432 | 0.444 | 0.466
NCI-H1944 | 1.3 | 1.13 | 1.14 | 1.07 | 0.215 | 0.197 | 0.21 | 0.182 | 0.614 | 0.673 | 0.559 | 0.552 | 0.385 | 0.368 | 0.411 | 0.357 | 0.245 | 0.253 | 0.27 | 0.263
NCI-H1975 | 1.03 | 1.02 | 1.07 | 0.65 | 0.513 | 0.319 | 0.468 | 0.21 | 0.781 | 0.758 | 0.763 | 0.449 | 0.825 | 0.894 | 1.04 | 0.363 | 0.968 | 0.75 | 0.94 | 0.482
NCI-H1993 | 0.778 | 0.758 | 0.788 | 0.7 | 0.619 | 0.539 | 0.682 | 0.558 | 0.702 | 0.802 | 0.791 | 0.749 | 1.32 | 1.14 | 0.933 | 1.08 | 0.621 | 0.569 | 0.664 | 0.582
NCI-H2009 | 1.2 | 1.18 | 1.22 | 1.09 | 0.288 | 0.278 | 0.273 | 0.195 | 0.731 | 0.733 | 0.773 | 0.634 | 0.799 | 0.684 | 0.74 | 0.52 | 0.757 | 0.713 | 0.823 | 0.684
